Results: publication PMC12714728, “VHH antibody loop guides design of a synthetic macrocyclic peptide that potently blocks influenza virus membrane fusion” (npj Viruses, 2025)
“And” between values parts separate entries of the source, which are not always exact repeats. Equal entries are not always repeated. Where two headings read alike, the source gives them in different places.

Key:
[1] = system: H5/Viet virus (A/Vietnam/1203/2004 (H5N1))
[2] = target: H1/NCa HA (H1N1 A/New Caledonia/20/1999); type: binding, influenza A virus
[3] = system: H1N1 A/Brisbane/59/2007 (H1/Bri) HA; type: biochemical, influenza A virus; conditions: pH 5.25
[4] = target: H3N2 A/Hong Kong/1/1968 HA (Influenza A virus, UniProt Q91MA7); type: binding
[5] = system: H5/Viet HA (H5N1 A/Vietnam/1203/2004); type: binding, influenza A virus
[6] = target: T1, H1/PR8 HA (A/Puerto Rico/8/1934 (H1N1)) (Influenza A virus, UniProt P03452); test: Trypsin susceptibility (TS) assay; type: biochemical; conditions: pH 5.0; 50 μM CP1 or 10 μM CR9114 Fab, 5 μM HA
T1 construct: The HA ectodomain was expressed using a baculovirus expression system in Sf9 cells; gp67 signal peptide (N); thrombin site (C); BirA biotinylation site (C); trimerization domain (C); His-tag (C); made in house; host or cells: Sf9 cells (baculovirus)

[7] = target: H9N2 A/turkey/Wisconsin/1/1966 HA; type: binding, influenza A virus
[8] = system: H1/NCa HA (A/New Caledonia/20/1999 (H1N1)); type: binding, influenza A virus
[9] = system: group 1 H1/Cal, H1/NCa, and H5/Viet HAs; type: binding, influenza A virus
[10] = target: B/Massachusetts/02/2012 HA (Yamagata lineage); type: binding, influenza B virus
[11] = In vitro cell permeability assay; conditions: for efflux ratio: LLC-PK1, Efflux ratio BA/AB; for efflux ratio / Papp B→A: LLC-Parent; for Papp B→A: LLC-PK1, Papp BA, basolateral to apical
[12] = target: H4N6 A/duck/Czechoslovakia/1956 HA (Influenza A virus, UniProt P19696); type: binding
[13] = system: H5/Viet HA (A/Vietnam/1203/2004 (H5N1)); type: binding, influenza A virus
[14] = In vitro cell permeability / P-gp substrate assay; conditions: for Papp A→B: LLC-PK1, Papp AB, LLC-MDR1, apical to basolateral; for Papp B→A: LLC-PK1, Papp BA, LLC-MDR1, basolateral to apical
[15] = target: B/Brisbane/33/2008 HA (Victoria lineage); type: binding, influenza B virus
[16] = target: H1N1 A/duck/Alberta/345/1976 HA; type: binding, influenza A virus
[17] = target: H1N1 A/Solomon Islands/3/2006 HA; type: binding, influenza A virus
[18] = target: H6N2 A/turkey/Massachusetts/3740/1965 HA; type: binding, influenza A virus
H2N2 A/Adachi/2/1957 HA = type: binding, influenza A virus
[19] = system: H1/Cal HA (H1N1 A/California/07/2009); type: binding, influenza A virus
[20] = target: H11N6 A/duck/England/1/1956 HA; type: binding, influenza A virus
[21] = target: H7N7 A/Netherlands/219/2003 HA; type: binding, influenza A virus
[22] = target: H3N2 A/Victoria/361/2011 HA; type: binding, influenza A virus
[23] = target: H16N3 A/black-headed gull/Sweden/4/1999 HA; type: binding, influenza A virus
[24] = target: H14N5 A/mallard/Astrakhan/263/1982 HA (Influenza A virus, UniProt P26136); type: binding
[25] = target: H15N9 A/shearwater/W. Australia/2576/79 HA; type: binding, influenza A virus
[26] = target: H12N5 A/duck/Alberta/60/1976 HA; type: binding, influenza A virus
[27] = system: H1/Cal HA (A/California/07/2009 (H1N1)); type: binding, influenza A virus
[28] = system: group 1 H1/Cal, H1/NCa, and H5/Viet HAs; type: binding, influenza A virus; remark: listed apart in the source
[29] = target: H10N7 A/chicken/Germany/N/1949 HA (Influenza A virus, UniProt P12581); type: binding
[30] = system: group 2 or influenza B HAs; type: binding, influenza A and B viruses

Chain of H3N2 A/Hong Kong/1/1968 HA (Q91MA7 17-530 limits assumed): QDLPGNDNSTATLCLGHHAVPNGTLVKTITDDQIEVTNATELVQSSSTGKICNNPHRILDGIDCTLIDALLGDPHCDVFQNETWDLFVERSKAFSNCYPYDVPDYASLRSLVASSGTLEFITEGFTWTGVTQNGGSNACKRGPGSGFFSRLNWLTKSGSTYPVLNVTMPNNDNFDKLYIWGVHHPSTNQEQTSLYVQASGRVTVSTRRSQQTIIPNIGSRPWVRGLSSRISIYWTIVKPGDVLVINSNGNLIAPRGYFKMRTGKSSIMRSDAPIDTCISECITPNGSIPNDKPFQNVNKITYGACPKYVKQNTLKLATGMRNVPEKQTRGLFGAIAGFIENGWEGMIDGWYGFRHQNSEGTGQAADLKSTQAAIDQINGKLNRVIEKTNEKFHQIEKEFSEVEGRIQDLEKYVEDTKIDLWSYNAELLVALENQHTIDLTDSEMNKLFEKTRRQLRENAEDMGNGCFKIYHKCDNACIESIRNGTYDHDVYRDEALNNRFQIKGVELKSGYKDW
Chain of H14N5 A/mallard/Astrakhan/263/1982 HA (P26136 18-531 limits assumed): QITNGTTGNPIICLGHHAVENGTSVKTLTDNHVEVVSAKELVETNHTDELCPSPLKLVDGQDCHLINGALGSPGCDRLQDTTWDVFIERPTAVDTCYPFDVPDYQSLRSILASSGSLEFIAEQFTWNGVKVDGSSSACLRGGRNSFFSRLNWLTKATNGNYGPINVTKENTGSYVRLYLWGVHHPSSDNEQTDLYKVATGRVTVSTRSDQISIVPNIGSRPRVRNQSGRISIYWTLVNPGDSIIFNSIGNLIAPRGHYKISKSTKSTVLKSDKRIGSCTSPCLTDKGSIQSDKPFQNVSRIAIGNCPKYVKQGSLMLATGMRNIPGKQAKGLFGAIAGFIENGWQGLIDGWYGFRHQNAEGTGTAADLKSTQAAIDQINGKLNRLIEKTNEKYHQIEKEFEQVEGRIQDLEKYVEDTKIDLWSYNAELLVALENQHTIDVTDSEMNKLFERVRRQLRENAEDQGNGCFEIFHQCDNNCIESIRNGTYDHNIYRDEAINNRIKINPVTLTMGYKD
T1 sequence (P03452 18-528 limits assumed): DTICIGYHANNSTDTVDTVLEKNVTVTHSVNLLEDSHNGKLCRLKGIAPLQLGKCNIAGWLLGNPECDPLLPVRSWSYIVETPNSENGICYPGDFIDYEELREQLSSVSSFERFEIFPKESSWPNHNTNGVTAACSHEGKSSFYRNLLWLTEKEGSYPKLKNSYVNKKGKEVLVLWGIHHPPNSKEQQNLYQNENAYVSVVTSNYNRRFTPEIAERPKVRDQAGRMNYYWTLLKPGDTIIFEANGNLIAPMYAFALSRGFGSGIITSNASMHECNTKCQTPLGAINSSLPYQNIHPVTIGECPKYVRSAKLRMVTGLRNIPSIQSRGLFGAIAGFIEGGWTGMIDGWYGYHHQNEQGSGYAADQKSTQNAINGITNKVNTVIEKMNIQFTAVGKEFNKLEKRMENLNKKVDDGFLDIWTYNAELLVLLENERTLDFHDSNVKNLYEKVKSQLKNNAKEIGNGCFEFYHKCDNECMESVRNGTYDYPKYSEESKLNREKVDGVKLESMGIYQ
Chain of H10N7 A/chicken/Germany/N/1949 HA (P12581 17-524 limits assumed): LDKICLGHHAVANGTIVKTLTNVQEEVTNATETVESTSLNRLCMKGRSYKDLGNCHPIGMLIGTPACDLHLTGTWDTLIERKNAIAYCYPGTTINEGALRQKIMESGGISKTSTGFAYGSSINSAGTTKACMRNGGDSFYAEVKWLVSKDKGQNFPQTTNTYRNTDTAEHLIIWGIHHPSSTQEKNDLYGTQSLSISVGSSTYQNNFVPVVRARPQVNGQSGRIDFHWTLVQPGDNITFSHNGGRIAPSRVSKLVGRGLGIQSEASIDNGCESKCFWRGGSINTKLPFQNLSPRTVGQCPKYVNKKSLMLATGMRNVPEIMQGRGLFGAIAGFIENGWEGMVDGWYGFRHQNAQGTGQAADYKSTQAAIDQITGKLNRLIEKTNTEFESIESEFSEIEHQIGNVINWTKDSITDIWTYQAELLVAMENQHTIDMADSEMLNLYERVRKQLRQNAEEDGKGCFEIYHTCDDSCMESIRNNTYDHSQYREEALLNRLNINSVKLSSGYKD
Chain of H4N6 A/duck/Czechoslovakia/1956 HA (P19696 17-527 limits assumed): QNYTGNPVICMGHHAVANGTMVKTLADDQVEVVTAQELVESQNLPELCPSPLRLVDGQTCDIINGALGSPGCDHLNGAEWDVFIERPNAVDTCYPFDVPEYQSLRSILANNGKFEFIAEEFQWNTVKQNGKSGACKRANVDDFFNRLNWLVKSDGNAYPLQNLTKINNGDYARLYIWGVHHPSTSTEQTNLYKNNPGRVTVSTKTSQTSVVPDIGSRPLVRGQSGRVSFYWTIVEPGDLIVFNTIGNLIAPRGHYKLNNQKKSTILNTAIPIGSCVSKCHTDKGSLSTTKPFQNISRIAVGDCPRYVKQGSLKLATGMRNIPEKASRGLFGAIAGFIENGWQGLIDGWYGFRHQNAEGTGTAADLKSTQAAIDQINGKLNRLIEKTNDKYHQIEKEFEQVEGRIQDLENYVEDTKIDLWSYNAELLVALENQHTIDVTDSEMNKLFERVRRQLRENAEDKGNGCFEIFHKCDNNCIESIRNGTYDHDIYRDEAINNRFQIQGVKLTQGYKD

CSCC[C@@H]1NC(=O)CNC(=O)CNC(=O)[C@H](C)NC(=O)[C@H](C(C)C)NC(=O)CNC(=O)[C@H](CC(C)C)NC(=O)[C@@H]2CCCN2C(=O)[C@H](CC(=O)O)NC(=O)[C@H](CCC(=O)O)NC(=O)[C@H](Cc2ccc(O)cc2)NC(=O)[C@H](CC(C)C)NC(=O)[C@H](CO)NC(=O)[C@H](C(C)C)NC(=O)[C@H]2CCCN2C(=O)[C@@H]2CCCN2C(=O)[C@H](Cc2ccc(O)cc2)NC(=O)[C@H](C(C)C)NC(=O)CNC1=O [CP1]
Neutralization activity against H5N1 virus (in words) [1]: modest activity
Kd [2]: 23 nM
IC50 [3]: 49 nM and 50 nM
KD [4]: N.B.
faster koff rate against H5 versus H1 HA [5]: 14 fold
Protection of HA from low pH-induced conversion to trypsin-susceptible conformation [6]: inhibits the conversion of H1/PR8 HA to the post-fusion conformation
Kd [7]: > 1000 nM
IC50 [8]: 52 ± 20 nM
improvement in binding in AlphaLISA versus LP1 [9]: 60- to 440 fold
IC50 ([9]; read-out: IC50 in AlphaLISA (range over HAs)): 52 to 840 nM
KD [10]: N.B.
recovery ([11]; LLC-PK1): 92.9%
efflux ratio ([11]; + 5 µM GF120918): 2.97
efflux ratio ([11]; no inhibitor): 2.55
Papp B→A ([11]; + 5 µM GF120918): 0.22 ± 0.12 ×10⁻⁶ cm/s
Papp B→A ([11]; no inhibitor): 0.19 ± 0.09 ×10⁻⁶ cm/s
Papp A→B ([11]; LLC-PK1, pH 7.4): 0.07 ± 0.01 ×10⁻⁶ cm/s
KD [12]: N.B.
IC50 [13]: 840 ± 130 nM
efflux ratio ([14]; LLC-PK1, Efflux ratio BA/AB, LLC-MDR1, + 5 µM GF120918): 1.36
efflux ratio ([14]; LLC-PK1, Efflux ratio BA/AB, LLC-MDR1, no inhibitor): 1.57
efflux ratio ([14]; LLC-PK1, Efflux ratio, text: LLC-parent and LLC-MDR1, in the presence and absence of elacridar (GF120918)): < 2
Papp A→B ([14]; + 5 µM GF120918): 0.23 ± 0.04 ×10⁻⁶ cm/s
Papp A→B ([14]; no inhibitor): 0.21 ± 0.03 ×10⁻⁶ cm/s
Papp B→A ([14]; + 5 µM GF120918): 0.32 ± 0.02 ×10⁻⁶ cm/s
Papp B→A ([14]; no inhibitor): 0.33 ± 0.08 ×10⁻⁶ cm/s
KD [15]: N.B.
Kd [16]: 101 nM
Kd [17]: 128 nM
Kd [18]: 91 nM
Kd (H2N2 A/Adachi/2/1957 HA): > 1000 nM
improvement in binding affinity versus linear peptide LP1 [19]: 60 fold
Kd ([19]; read-out: KD): 54 nM
Kd ([19]; read-out: KD by SPR): 50 nM
Kd [20]: 2300 nM
KD [21]: N.B.
KD [22]: N.B.
Kd [23]: 1100 nM
KD [24]: N.B.
KD [25]: N.B.
KD [26]: N.B.
IC50 [27]: 55 nM
half-life / residence time t1/2 (range over HAs) [28]: 5 to 46 s
slower dissociation (koff) compared to LP1 [28]: 9- to 180 fold
KD [29]: N.B.
Binding against group 2 or influenza B HAs in SPR [30]: no binding
